Where two headings read alike, the source gives them in different places. Numbered stars: 1 amine (or outer) side, 2 acyl side, 3 side chain; on linkers, the order of the positions; unused ones are H or OH. Square brackets hold non-standard residues; d marks the D form. Ends that are not written are not given here. Peptide text beside a SMILES is read from it. X3 = O=C([C@H](C[C@@H]1[C@H](F)C[C@H](F)C[C@@H]1F)N[*:1])[*:2]; X2 = O=C([C@H](C[C@@H]1C[C@H](F)C[C@H](F)C1)N[*:1])[*:2]; X1 = O=C([C@H](C[C@H]1CC[C@@H](F)CC1)N[*:1])[*:2]; Phe(F5) = N[C@@H](Cc1c(F)c(F)c(F)c(F)c1F)C(=O)O; Phe(4-F) = N[C@@H](Cc1ccc(F)cc1)C(=O)O

Data set [1] deals with T1, FPR2 (Homo sapiens, UniProt P25090).
T1 sequence (P25090 1-351): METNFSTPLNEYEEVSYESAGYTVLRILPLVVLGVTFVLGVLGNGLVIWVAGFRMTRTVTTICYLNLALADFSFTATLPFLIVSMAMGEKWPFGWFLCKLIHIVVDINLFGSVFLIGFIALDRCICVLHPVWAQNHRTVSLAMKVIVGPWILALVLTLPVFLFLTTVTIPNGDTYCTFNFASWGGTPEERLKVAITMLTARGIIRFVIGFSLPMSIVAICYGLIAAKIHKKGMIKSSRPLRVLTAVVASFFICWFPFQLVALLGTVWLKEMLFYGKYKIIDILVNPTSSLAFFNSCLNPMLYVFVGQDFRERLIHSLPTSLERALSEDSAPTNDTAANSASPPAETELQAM
As to the kind of experiment: Competition binding against K(5/6-FAM)-WKYMVm, flow cytometry. Also noted: FLAG (N); expressed in transfected cells. The settings on record: for IC50: binding affinity (order of magnitude), order of magnitude. The method, then: Subsequently, mean fluorescence was measured using flow cytometry (Attune NxT). Data was expressed as a percentage of the maximum binding (i.e., no competitor) and errors were determined as a result of three independent experiments performed in duplicate (Figure 5 ).
Cell Culture and Transfection: Constructs were either transiently or stably expressed in native Human Embryonic Kidney 293 (HEK293) cells and maintained in DMEM containing 10% FCS. Transfections were performed using PEI at a ratio of DNA:PEI of 1:4 for all studies. […]
Competition Binding: Competition binding was performed using a fluorescently labelling ligand using an assay analogous to the classical radiolabelled method.[1] Briefly, human embryonic kidney 293 (HEK293) cells stably expressing human Formyl […]
and incubated for 90 min on ice in the dark to allow equilibrium binding. Subsequently, mean fluorescence was measured by flow cytometry using the Attune NxT. Data was expressed as a percentage of maximum binding (i.e. no competitor) and analysed via nonlinear regression one site model of equilibrium. IC50 values were determined using GraphPad PRISM software.

Data set [2] deals with T. brucei. Also noted: method as in PMID 34927802. The settings on record: previously reported; cited from earlier work.
Data set [3] concerns the target T2, FPR2 (Homo sapiens, UniProt P25090).
T2 construct: expressed in transfected cells; host or cells: HEK293, transient transfection
Briefly: BRET analysis of β-arrestin 2 recruitment. The settings on record: HEK293, FPR2-Rluc8 + β-arrestin 2-YFP, 37 °C. The format is cell-based. The method, then: (§1) Since these modifications of WKYMVm altered the relative affinity of the compounds to bind to FPR2, a further series of bioluminescence resonance energy transfer (BRET) assays were conducted to determine if there was any change in efficacy, specifically the ability to recruit molecular effectors such as G‐protein or β‐arrestin.^[ [28], [29] ^] Briefly, HEK293 cells were transiently transfected with FPR2‐Rluc8 (donor) in combination with and either mGsi‐Venus or β‐arrestin 2‐YFP (acceptors) and replated after 24 h into white opaque 96‐well plates. Cells were assayed 24 h later at 37 °C, in HEPES‐buffered saline solution (HBSS) with coelenterazine H (5 μM). Cells were then stimulated with increasing concentrations of WKYMVm or analogs. Luminescence and fluorescence values were measured at 460/30 nm (FPR2) and […] (mini‐Gsi or β‐arrestin protein), respectively, and the acceptor: donor ratio was determined, normalized by subtraction of the ratio observed in untreated cells (Figure 7 ). […]
(§2) BRET analysis of β-Arrestin and mini-Gsi recruitment: HEK293 cells were grown on 6 well plates until 90-95% confluency was reached. […] Cells were then stimulated with increasing concentrations of WKYMVm and analysed using ClarioStar Plus plate reader (BMG Labtech) at 10 minutes post agonist addition. […]
T2 sequence (P32121 whole entry partner, one chain of several): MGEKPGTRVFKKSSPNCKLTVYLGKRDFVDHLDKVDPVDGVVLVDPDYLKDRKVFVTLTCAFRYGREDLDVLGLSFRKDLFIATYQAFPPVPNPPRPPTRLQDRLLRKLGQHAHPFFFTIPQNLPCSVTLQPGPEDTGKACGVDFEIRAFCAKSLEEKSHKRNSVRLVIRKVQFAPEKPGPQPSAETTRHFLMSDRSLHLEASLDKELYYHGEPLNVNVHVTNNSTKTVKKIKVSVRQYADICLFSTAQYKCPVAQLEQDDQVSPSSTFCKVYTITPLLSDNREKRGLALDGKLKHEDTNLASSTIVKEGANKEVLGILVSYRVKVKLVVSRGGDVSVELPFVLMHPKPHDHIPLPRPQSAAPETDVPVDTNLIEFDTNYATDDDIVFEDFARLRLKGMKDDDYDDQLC

The target in data set [4] is T1, FPR2. Briefly: BRET analysis of mini-Gsi recruitment. The format is cell-based. The settings on record: HEK293, FPR2-Rluc8 + mGsi-Venus, 37 °C. Details: expressed in transfected cells; host or cells: HEK293, transient transfection. The method, then: as §1, §2
Data set [5] concerns T. brucei. As to the kind of experiment: Trypanocidal activity against growing cells. The format is cell-based, Trypanosoma brucei. The settings on record: for EC50: Trypanosoma brucei. From the text: (§3) Accordingly N‐Boc amino acid esters 20a–d were hydrolyzed to their free carboxylic acids 25a–d and then progressed in each case to the corresponding Weinreb–Nahm amides^[ [33] ^] 26a–d. N‐Boc deprotection followed by coupling to N‐Boc‐tryptophan generated dipeptides 27a–d as the required precursors for cyclization. The intramolecular Pictet–Spengler condensations, followed a previous protocol^[ [19] ^] and 4‐monofluoro 28a, 3,5‐difluoro‐ 28b, and 2,3,4,5,6‐pentafluoro‐ 28d keto‐piperazines could be prepared following this method. It is noteworthy that the pentafluoro‐ analog was accompanied by what appeared to be a high level of defluorinated side products, however 28d was conveniently purified by HPLC rather than column chromatography. […] Thus, 4‐monofluoro‐ 28a, 3,5‐difluoro‐ 28b, and 2,3,4,5,6‐pentafluoro‐ 28d cyclohexyl‐amino acid tryptophan diketopiperazines were prepared and explored in antitrypanosomal assays. Given the importance of molecular lipophilicity in the context of medicinal chemistry, a Log P assessment (HPLC) was made of the diketopiperazines products 28a, 28b, and 28d as illustrated in Table 1 . As anticipated, there is an increase in polarity (LogP reduction) as the number of fluorines increases. We also know from previous work[[6b]] that the Ph ring is more polar than cyclohexane but less polar than the progressively fluorinated cyclohexane rings. The keto‐piperazines 28a, 28b, and 28d were assayed^[ [20] ^] against growing cells of T. brucei and T. cruzi, as well as the human cell line, HeLa and the data is presented in Table 1.
Bioactivities assays of Janus face Tryptophan
Parasites were grown in different medium (e.g. T. brucei was grown in HMI-11 medium) with 10% heat-inactivated foetal bovine serum. parasites were counted using CASY TT Cell Counter. Fluorescence was recorded using a FLx 800 plate reader (BioTek) with an excitation wavelength 530–535 nm and emission wavelength of 590–610 nm using Gen5 Reader Control 2.0 Software (BioTek). EC50 values were determined using a 4-parameter non-linear logistic regression equation using GraFit 5.0 (Erithacus Software). SD values were calculated based on curve fitting to n biological replicates performed in parallel.

A further data set is described as follows: Log P assessment (HPLC). The format is physicochemical.
Text: as §3

Details of data set [6]: method as in PMID 29732086. The settings on record: ref 6a; cited from earlier work.
Data set [7] addresses T3, formyl-peptide receptor type 2 (FPR2), on HEK293 cells (human, UniProt P25090 1-351).
T3 chain: T1 sequence (P25090 1-351)
As to the kind of experiment: FACS; competition with K(5/6-FAM)-WKYMVm; printed as Log IC50 -5.33.

The target in data set [8] is T3, formyl-peptide receptor type 2 (FPR2), …. Briefly: FACS; competition with K(5/6-FAM)-WKYMVm; printed as Log IC50 -5.80.
For data set [9] the target is unchanged. Briefly: FACS; competition with K(5/6-FAM)-WKYMVm; printed as Log IC50 -6.29.
For data set [10] the target is unchanged. Briefly: FACS; competition with K(5/6-FAM)-WKYMVm; printed as Log IC50 -7.24.

`CSCC[C@H](NC(=O)[C@H](C[C@@H]1[C@H](F)C[C@H](F)C[C@@H]1F)NC(=O)[C@H](CCCCN)NC(=O)[C@@H](N)Cc1c[nH]c2ccccc12)C(=O)N[C@H](C(=O)N[C@H](CCSC)C(N)=O)C(C)C` [23c] (H-WK[X3]MV[dM]-NH2) gave an IC50 on FPR2 [1] of about 1 µM.
Molecule `CSCC[C@H](NC(=O)[C@H](C[C@@H]1C[C@H](F)C[C@H](F)C1)NC(=O)[C@H](CCCCN)NC(=O)[C@@H](N)Cc1c[nH]c2ccccc12)C(=O)N[C@H](C(=O)N[C@H](CCSC)C(N)=O)C(C)C` [23b] (H-WK[X2]MV[dM]-NH2) came in with an IC50 on FPR2 [1] of about 0.1 µM.
Consider `O=C1NC(Cc2ccccc2)C2NC1Cc1c2[nH]c2ccccc12` (stereo not drawn) [compound 29], for which, in the data set on T. brucei [2], the EC50 was 52.1 ± 3.5 µM.
For the molecule `CSCC[C@H](NC(=O)[C@H](Cc1ccc(O)cc1)NC(=O)[C@H](CCCCN)NC(=O)[C@@H](N)Cc1c[nH]c2ccccc12)C(=O)N[C@H](C(=O)N[C@H](CCSC)C(N)=O)C(C)C` [compound 13, Trp‐Lys‐Tyr‐Met‐Val‐D‐Met‐NH2, reference compound], on FPR2 [3], the “efficacy of β-arrestin recruitment” value is reported as “most efficacious”. At FPR2 [4], the “efficacy of Gi (mini-Gsi) recruitment” value is recorded as “most efficacious”.
Molecule `O=C1NC(CC2C(F)C(F)C(F)C(F)C2F)C2NC1Cc1c2[nH]c2ccccc12` (stereo not drawn) [28d] had an EC50 in the data set with T. brucei [5] of 22 ± 2.12 µM. The “trypanocidal activity against T. brucei” value in the data set on T. brucei [5] (comparison within series and with 29) is recorded as “least active compound”. The same molecule registered a chromatographic logP in the data set “Log P assessment (HPLC)” of 2.58.
Molecule `O=C1NC(CC2CC(F)CC(F)C2)C2NC1Cc1c2[nH]c2ccccc12` (stereo not drawn) [28b] yielded an EC50 in the data set on T. brucei [5] of 11.3 ± 0.73 µM. In addition, the chromatographic logP in “Log P assessment (HPLC)” was found to be 2.92.
Turning to `CSCC[C@H](NC(=O)[C@H](Cc1c(F)c(F)c(F)c(F)c1F)NC(=O)[C@H](CCCCN)NC(=O)[C@@H](N)Cc1c[nH]c2ccccc12)C(=O)N[C@H](C(=O)N[C@H](CCSC)C(N)=O)C(C)C` [compound 25] (H-WK[Phe(F5)]MV[dM]-NH2), the IC50 on FPR2 [1] is about 1 µM.
On the same count and under the same terms, with `CSCC[C@H](NC(=O)[C@H](Cc1ccc(F)cc1)NC(=O)[C@H](CCCCN)NC(=O)[C@@H](N)Cc1c[nH]c2ccccc12)C(=O)N[C@H](C(=O)N[C@H](CCSC)C(N)=O)C(C)C` [compound 24] (H-WK[Phe(4-F)]MV[dM]-NH2) the figure was about 0.1 µM.
Regarding `CSCC[C@H](NC(=O)[C@H](C[C@H]1CC[C@@H](F)CC1)NC(=O)[C@H](CCCCN)NC(=O)[C@@H](N)Cc1c[nH]c2ccccc12)C(=O)N[C@H](C(=O)N[C@H](CCSC)C(N)=O)C(C)C` [23a] (H-WK[X1]MV[dM]-NH2; N-terminus assumed), the “efficacy of β-arrestin recruitment” value at FPR2 [3] is “comparable efficacy”. Moreover, the “relative binding affinity” value on FPR2 [1] (comparison within the peptide series) was “highest affinity but significantly weaker than that of the WKYMVm 13”. Besides, the “efficacy of Gi (mini-Gsi) recruitment” value at FPR2 [4] is “comparable efficacy”.
Turning to `COC(=O)C=CC(CC1CCNC1=O)NC(=O)C(CC1C(F)C(F)C(F)C(F)C1F)NC(=O)C=Cc1ccccc1` (stereo not drawn) [compound 9], the “Log P” value in data set [6] was 1.21.
In the case of `O=CC(CC1CCNC1=O)NC(=O)C(CC1C(F)C(F)C(F)C(F)C1F)NC(=O)c1cc2ccccc2[nH]1` (stereo not drawn) [compound 8], the “Log P” value in data set [6] is on record as 0.69.
WK[all‑cis pentafluorocyclohexylalanine]MV[dM]-NH2 [W-peptide analog 23d (all-cis pentafluorocyclohexylalanine in place of Tyr3 of WKYMVm)] came in with an IC50 in [7] of 4.68 µM.
For the molecule WK[all‑cis trifluorocyclohexylalanine]MV[dM]-NH2 [W-peptide analog 23c (all-cis trifluorocyclohexylalanine in place of Tyr3 of WKYMVm)], in data set [8], the IC50 amounted to 1.58 µM. This counts as single-digit micromolar.

B1: W-peptide analog 25 (pentafluoroaryl phenylalanine in place of Tyr3 of WKYMVm) (peptide)
peptide: WK[Phe(F5)]MV[dM]-NH2
modifications: N-terminus assumed
SMILES: CSCC[C@H](NC(=O)[C@H](Cc1c(F)c(F)c(F)c(F)c1F)NC(=O)[C@H](CCCCN)NC(=O)[C@@H](N)Cc1c[nH]c2ccccc12)C(=O)N[C@H](C(=O)N[C@H](CCSC)C(N)=O)C(C)C
notes: last residue D-methionine; also called pentafluoroaryl motif; source: synthetic peptide (microwave-assisted SPPS, preparative HPLC)
B1: in [9], the IC50 is 0.513 µM. In other words, the sub-micromolar range.

B2: W-peptide analog 24 (4-fluorophenylalanine in place of Tyr3 of WKYMVm) (peptide)
peptide: WK[Phe(4-F)]MV[dM]-NH2
modifications: N-terminus assumed
SMILES: CSCC[C@H](NC(=O)[C@H](Cc1ccc(F)cc1)NC(=O)[C@H](CCCCN)NC(=O)[C@@H](N)Cc1c[nH]c2ccccc12)C(=O)N[C@H](C(=O)N[C@H](CCSC)C(N)=O)C(C)C
notes: last residue D-methionine; also called 4-fluorophenyl-modified peptide 24; 4-fluorophenylalanine analog 24; source: synthetic peptide (microwave-assisted SPPS, preparative HPLC)
For the molecule B2, the IC50 in [10] came to 0.0575 µM.

The values are drawn from PMC12631002, “Bioactivity Profiles of Progressively Ring‐Fluorinated Cyclohexyl Motifs in the WKYMVm Peptide as Formylpeptide FPR2 Agonists and in Keto‐Piperazines as Antitrypanosome Agents” (Chembiochem, 2025).
